In patent US20120214846A1, “HEXAHYDROCYCLOPENTYL[F]INDAZOLE PYRIDYL ETHANOLS AND DERIVATIVES THEREOF AS SELECTIVE GLUCOCORTICOID RECEPTOR MODULATORS” (MERCK SHARP & DOHME CORP, priority 2009, published 2012):
pEC50: −log10 of the molar value.

Tests used:
GR = molecular target: T1, GR (Homo sapiens, UniProt P04150); test: Trans-Activation Modulation of Glucocorticoid Receptor Assay (GRAMMER), MMTV-LUC reporter, A549 cells; assay type: cell-based; design: endogenous in cells; details: for Emax: A549, A549 cells, relative to 300 nM dexamethasone, read-out: Transactivation A549 Cells GRAMMER Emax; for pEC50: A549 cells, inflection point, read-out: Transactivation A549 Cells GRAMMER IP
T1 sequence (P04150 1-777): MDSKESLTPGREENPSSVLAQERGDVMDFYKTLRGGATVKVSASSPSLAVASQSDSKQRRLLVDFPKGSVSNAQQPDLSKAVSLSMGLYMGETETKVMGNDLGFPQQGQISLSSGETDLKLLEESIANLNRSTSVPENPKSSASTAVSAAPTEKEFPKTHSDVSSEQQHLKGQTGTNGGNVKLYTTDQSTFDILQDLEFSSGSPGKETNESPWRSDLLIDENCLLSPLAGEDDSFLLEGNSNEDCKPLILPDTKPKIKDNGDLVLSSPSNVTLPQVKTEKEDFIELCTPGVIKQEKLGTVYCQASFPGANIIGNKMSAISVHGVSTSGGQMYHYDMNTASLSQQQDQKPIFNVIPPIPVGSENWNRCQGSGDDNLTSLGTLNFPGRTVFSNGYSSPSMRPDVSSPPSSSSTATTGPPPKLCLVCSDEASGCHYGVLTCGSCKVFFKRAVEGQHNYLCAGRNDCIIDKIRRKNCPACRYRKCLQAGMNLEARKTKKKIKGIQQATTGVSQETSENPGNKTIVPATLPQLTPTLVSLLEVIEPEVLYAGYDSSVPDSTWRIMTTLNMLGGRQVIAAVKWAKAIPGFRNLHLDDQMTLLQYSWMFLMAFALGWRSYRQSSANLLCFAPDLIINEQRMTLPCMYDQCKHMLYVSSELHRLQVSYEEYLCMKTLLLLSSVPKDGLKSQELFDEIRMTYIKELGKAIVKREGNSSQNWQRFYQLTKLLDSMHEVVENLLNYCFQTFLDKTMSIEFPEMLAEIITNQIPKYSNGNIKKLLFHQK
Text: Trans-Activation Modulation of Glucocorticoid Receptor Assay
This assay assesses the ability of test compounds to control transcription from the MMTV-LUC reporter gene in lung adenocarcinoma A549 cells or HeLa cells, a human […] cell line that naturally expresses the human GR. The assay measures induction of a modified MMTV LTR/promoter linked to the LUC reporter gene.
The routine transient assay consists of plating 7,000-25,000 cells/well of a white, clear-bottom 96-well plate. Alternatively, 384-well plates can be used at a cell concentration of 10,000/well. The media that the cells are plated in is “exponential growth medium” which consists of phenol red-free RPMI1640 containing 10% FBS, 4 mM L-glutamine, 20 mM HEPES, 10 ug/mL human insulin, and 20 ug/mL gentamicin. Incubator conditions are 37° C. and 5% CO2. The transfection is done in batch mode. The cells are trypsinized and counted to the right cell number in the proper amount of fresh media. It is then gently mixed with the FuGene6/DNA mix and plated onto the 96 or 384-well plate, all the wells receive 100 uL or 40 uL, respectively, of medium+lipid/DNA complex then incubated 37° C. overnight. The transfection cocktail consists of serum-free OptiMEM, FuGene6 reagent and DNA. The manufacturer's (Roche Biochemical) protocol for cocktail setup is as follows: The lipid to DNA ratio is approximately 2.5:1 and the incubation time is 20 min at room temperature. Sixteen to 24 hours after transfection, the cells are treated with dexamethasone to a final concentration of 10 nM as well as the compound of interest, such that final DMSO (vehicle) concentration is equal to or less than 1%. Each plate also contains samples that are treated with 10 nM dexamethasone alone, which is used as the 100% activity control. The cells are exposed to the compounds for 24 hours. After 24 hours, the cells are lysed by a Promega cell culture lysis buffer for approximately 30 min and then the luciferase activity in the extracts is assayed in the 96-well format luminometer. In 384-well format, Steady-Glo (Promega) or Steady-Lite (PerkinElmer) can be used by adding an equal volume of reagent to the media present in each well. […] Antagonist activity is calculated by determining the decrease in dexamethasone-induced activity in response to compound treatment relative to samples that were treated with dexamethasone alone. […] This transactivation assay can be performed in an agonist and antagonist mode to identify these different activities.
The action of compounds is also tested in an antagonist mode (Anti-GRAMMER) in which the cells are treated with medium containing an agonist such as 10 nM DEX and the ability to agents to inhibit the activation by an agonist is measured.

[1] = tested on: female Sprague-Dawley rats, oxazolone (OX) contact dermatitis; test: In Vivo Inflammation Assay (oxazolone contact dermatitis model); design: key to Inflammation Assay Glucose Effect / GL *: +: the glucose level increased compared to vehicle; −: the glucose level decreased compared to vehicle; details: rat; for Inflammation Assay Glucose Effect: glucose level compared to vehicle; for Inflammation Assay Anti-inflammatory Effect: relative to control compound
Procedure: In Vivo Inflammation Assay
Intact adult (6 month old) female Sprague-Dawley rats are used in the oxazolone (OX) contactdermatitis model. Rats were sensitized on the ventral abdomen with OX on Day 0. On Days 7 and 9, a randomly-selected ear was challenged (same ear each time) with OX; the other was treated with vehicle. Daily treatment begun on Day 7 and continued for 7d with test compounds at different doses and 1.3 mpk 6-methlyprednisolone or 0.1 mpk DEX as positive controls. The thickness of both ears are measured on Days 11 and 14. Necropsy occurred on Day 14. The rat is first weighed, then anesthetized in a CO2 chamber until near death. Approximately 5 ml whole blood is obtained by cardiac puncture. The rat is then examined for certain signs of death and completeness. Tissues are dissected in a highly stylized fashion. Then the following endpoints were evaluated: a) inhibiting ear inflammation induced by oxazalone, b) raising serum insulin, c) reducing serum ACTH, d) reducing spleen weight, e) reducing skin thickness, f) reducing body weight, g) increasing expression of bone-related genes with potential relationship to negative glucocorticoid effects on bone; e) changes in molecular markers that correlate with skin inflammation, skin thinning, muscle atrophy and glucose metabolism in liver. All blood samples were collected between 1330-1530 hours, ˜4-5 hrs after the last compound treatment.
Primary data for this assay are left and right ear thickness. Inter-ear thickness difference (etd) is used for the estimating the level of inflammation and effectiveness of the compounds is determined by their ability to reduce the increase the thickness of the inflamed ear. Back of the rat skin thickness, spleen weight, serum insulin as well as the effects of gcs on the expression of molecular markers in skin inflammation, skin atrophy, muscle atrophy and glucose metabolism in liver are measured. Data are analyzed by anova plus fisher plsd post-hoc test to identify intergroup differences.

| Structure (SMILES) | Emax (GR) [%] | pEC50 (GR) | Inflammation Assay Glucose Effect [1] | Inflammation Assay Anti-inflammatory Effect [1] |
| --- | --- | --- | --- | --- |
| COc1ccnc(C(O)C[C@]2(O)CCC3=Cc4c(cnn4-c4ccc(F)cc4)C[C@@]32C)c1 (stereo partly drawn) [Example 3, (4αS,5R)-1-(4-fluorophenyl)-5-[2-hydroxy-2-(4-methoxypyridin-2-yl)ethyl]-4α-methyl-1,4,4α,5,6,7-hexahydrocyclopenta[f]indazol-5-ol] | 21.6 | 6.88 | + | + (the anti-inflammatory activity was equal to or greater than 40% of the effect generated by the control compound) |
| C[C@]12Cc3cnn(-c4ccc(F)cc4)c3C=C1CC[C@@]2(O)CC(O)c1cc(C#N)ccn1 (stereo partly drawn) [Example 9, 2-{2-[(4αS,5R)-1-(4-fluorophenyl)-5-hydroxy-4α-methyl-1,4,4α,5,6,7-hexahydrocyclopenta[f]indazol-5-yl]-1-hydroxyethyl}pyridine-4-carbonitrile] | 27.4 | 6.80 | + | + (the anti-inflammatory activity was equal to or greater than 40% of the effect generated by the control compound) |
| Cc1ccnc(C(O)C[C@]2(O)CCC3=Cc4c(cnn4-c4ccc(F)cc4)C[C@@]32C)c1 (stereo partly drawn) [Example 11, (4αS,5R)-1-(4-fluorophenyl)-5-[2-hydroxy-2-(4-methylpyridin-2-yl)ethyl]-4α-methyl-1,4,4α,5,6,7-hexahydrocyclopenta[f]indazol-5-ol] | 27.7 | 6.79 | + | + (the anti-inflammatory activity was equal to or greater than 40% of the effect generated by the control compound) |
